Key:
[1] = amorphous form
Description: Behaviour in the thin layer chromatogram (substance spots made visible with iodine vapour): […]

[2] = test system: Aspergillus niger; conditions: standard tests

Structure (SMILES): C/C=C/C[C@@H](C)[C@@H](O)[C@H]1C(=O)N[C@@H](C)C(=O)N(C)CC(=O)N(C)[C@@H](CC(C)C)C(=O)N[C@@H](C(C)C)C(=O)N(C)[C@@H](CC(C)C)C(=O)N[C@@H](C)C(=O)N[C@H](C)C(=O)N(C)[C@@H](CC(C)C)C(=O)N(C)[C@@H](CC(C)C)C(=O)N(C)[C@@H](C(C)C)C(=O)N1C [S 7481/F-2, Cyclosporin B]
- Solubility in most of the usual organic solvents [1]: readily soluble
- Solubility in petroleum ether and water [1]: practically insoluble
- Inhibition of the growth of Aspergillus niger [2]: inhibition of the growth
